# Values joined by “and” are separate entries in the source; they are usually repeats but may differ in a detail not shown here. Equal values may be shown once.
# Columns and labels:
# Ras [1] = test: Ras BRET sensor (Raf1-RBD-RlucII / rGFP-CAAX), AT1R-mediated; type: cell-based, human
# Description: (§1) Since 21 inhibited both ERK1/2 and Akt activation by GPCRs and EGFR, we looked at a common target involved in both pathways. The small G protein Ras is an upstream regulator of both Ras-RAF-MEK-ERK and PI3K/Akt signaling pathways[35],[36]. Therefore, we explored 21’s ability to inhibit Ras activity using GST-Raf1-Ras-binding domain (RBD) in a pull-down assay. A reduction of 60% in GTP-bound Ras was noticed in pulled-down from cells treated with 21 and stimulated with either AT1R or EGFR, as compared to vehicle-treated cells (Fig. 4a, b). Complementary to this in vitro assay, we generated a Ras BRET assay, using the Raf-Ras binding domain tagged with RlucII (Raf1-RBD-RlucII) and the rGFP at the PM (rGFP-CAAX) (Supplementary Fig. 3c), to assess 21’s effects on Ras activation kinetics. […] Overexpression of either the active form of Ras (G12V) or SOS1 anchored at the PM (SOS-CAAX) produced a robust basal BRET signal that was no longer modulated by receptor activation (Supplementary Fig. 3d). […] 21’s potency to inhibit ARF6 and Ras is also consistent with its relative efficacy for inhibiting AT1R internalization and MAPK, respectively, when used at 50 μM (e.g., around 7 and 70 times the respective IC50s) (Figs. 2e and 3a). We also assessed if 21 was acting as a pan small G protein inhibitor by testing its effect on Rho and Rac/Cdc42. […] To assess Rac/Cdc42 activity, we generated a Rac/Cdc42 BRET sensor that consisted of the PAK-CRIB domain fused to RlucII (PAK-CRIB-RlucII) and the rGFP-CAAX (Supplementary Fig. 3e). PAK-CRIB, which binds to active Rac/Cdc42, was recruited to the PM upon AngII stimulation of cells and generated a robust BRET signal, which was blocked by the overexpression of the DN Rac1-T17N. Overexpression of the constitutively active Rac1-Q61L increased the basal BRET, which was no longer modulated by AT1R stimulation (Supplementary Fig. 3f).
# HEK293SL cells were seeded at a density of 7.5 × 10^5 cells per 100-mm dish and 24 h later, transiently transfected as such. For receptor internalization experiments, cells were transfected with 0.12 μg AT1R-RlucII, B2R-RlucII, or β2AR-RlucII and 0.48 μg of either rGFP-CAAX (to assess removal from the PM) or rGFP-FYVE (to assess accumulation in the endosomes). For β-arrestin recruitment assays, cells were transfected with 0.48 μg of receptor-YFP along with 0.12 μg of β-arrestin-RlucII. For β-arrestin/AP-2 binding experiments, cells were transfected with 1 μg Flag-AT1R, 1 μg β2-Adaptin-YFP, and 0.12 μg β-arrestin2-RlucII. For G protein activation, cells were transfected with 3 μg of sp-Flag-AT1R along with either 4.5 μg of the Gαq-polycistronic BRET sensor or 0.24 μg of the Gαi3-RlucII and 0.6 μg of GFP10-Gγ2 and Gβ1 sensors or 0.12 μg PKN-RBD-RlucII and 0.48 μg of rGFP-CAAX. For PKC activation, cells were transfected with 3 μg of sp-Flag-AT1R and 0.18 μg of the PKC sensor. For GTPase activation experiments, cells were transfected with 1 μg Flag-AT1R, 0.48 μg of rGFP-CAAX, and either 0.12 μg of GGA3-PBD-RlucII, PAK-CRIB-RlucII or Raf-RBD-RlucII. For biosensor validation experiments, cells were additionally transfected with 500 ng Flag-K-Ras-WT, Flag-K-Ras-G12V, Flag-K-Ras-SOS-CAAX, HA-ARF6-WT, HA-ARF6-T27N, Myc-Rac1-WT, Myc-Rac1-Q61L or Myc-Rac1-T17N. For PI3K/Akt activation experiments, cells were transfected with 0.48 μg of rGFP-CAAX and 0.12 μg of Akt (PH)-RlucII. After 18 h of transfection, the media was replaced and cells were divided for subsequent experiments. Cells were detached and seeded onto poly-L-ornithine-coated 96-well flat white bottom plates (BrandTech Scientific) at a density of 2.5 × 10^4 cells per well in media. The next day, cells were washed once with Tyrode’s buffer (140 mM NaCl, 2.7 mM KCl, 1 mM CaCl2, 12 mM NaHCO3, 5.6 mM D-glucose, 0.5 mM MgCl2, 0.37 mM NaH2PO4, 25 mM HEPES, pH 7.4) and left in Tyrode’s buffer. […]
# Ras [2] = test: GST-Raf1-RBD pull-down of EGFR-mediated Ras activation; type: cell-based, human; conditions: for Ras-GTP over total Ras, GST-Raf1-RBD pull-down, EGFR: Comp 21 50 μM, individual experiments
# Description: as §1
# Activation of ARF1, ARF6, Ras, and Rho were assessed by using GST pull-down assays. […] ImageLab 5.2 software was used to quantify the digital blots as fold of the amount of pulled down protein over total protein. […]
compound,measurement,setting,value
CC(C)C(=O)N1CCN(c2ccc(NC(=O)c3cc4ccccc4o3)cc2Cl)CC1 [Compound 21],decrease of Ras activation following AT1R stimulation (Ras BRET assay),Ras [1]; 50 μM,50–70%
same,IC50,"Ras [1]; AT1R, dose-response",700 nM
same,"Ras BRET sensor signal (Fig.4c), single experiments","Ras [1]; Comp 21 50 μM, Time 0 min",0
same,Ras MEAN (Fig.4d),Ras [1]; Log [Comp 21] (M) -4,16.3196
same,Ras MEAN (Fig.4d),Ras [1]; Log [Comp21] (M) -4.3,30.5907
same,Ras MEAN (Fig.4d),Ras [1]; Log [Comp21] (M) -5,29.6351
same,Ras MEAN (Fig.4d),Ras [1]; Log [Comp21] (M) -5.3,36.1989
same,Ras MEAN (Fig.4d),Ras [1]; Log [Comp 21] (M) -6,54.1758
same,Ras MEAN (Fig.4d),Ras [1]; Log [Comp21] (M) -6.3,74.1367
same,Ras MEAN (Fig.4d),Ras [1]; Log [Comp 21] (M) -7,95.616
same,"reduction in GTP-bound Ras, EGFR-stimulated cells (pull-down)","Ras [2]; 50 μM, compared to vehicle-treated cells",60%
same,"Ras-GTP over total Ras, GST-Raf1-RBD pull-down, EGFR",Ras [2]; Ctrl (no EGF),0.1945 and 0.09698 and 0.1503
same,"Ras-GTP over total Ras, GST-Raf1-RBD pull-down, EGFR",Ras [2]; EGF,1.319 and 0.978 and 0.8185

# From article PMC8333425, “Discovery of a dual Ras and ARF6 inhibitor from a GPCR endocytosis screen” (Nature Communications, 2021)
